From article PMC8953856, “α/β-Peptides as Nanomolar Triggers of Lipid Raft-Mediated Endocytosis through GM1 Ganglioside Recognition” (Pharmaceutics, 2022)
No end group written: not given here.

Assays:
[1] = Protease assay with trypsin; format: in vitro ADME; conditions: trypsin (isolated protease) in buffer; 100 mM TRIS–HCl pH 8.0 without CaCl2; peptide 100 mM (so in the source); protease stock 0.5 mg/mL; samples at 2, 6, 25, 60 min; HPLC–MS; < 24 = peak not detected at 2 min, 3% detection limit
[2] = Protease assay with chymotrypsin; format: in vitro ADME; conditions: chymotrypsin (isolated protease) in buffer; 100 mM TRIS–HCl pH 8.0 with 10 mM CaCl2; peptide 100 mM (so in the source); 50 mL of 0.5 mg/mL chymotrypsin stock to 500 mL peptide solution (so in the source); samples at 2, 6, 25, 60 min; HPLC–MS; < 24 = peak not detected at 2 min, 3% detection limit
Protocol: (§1) Protease assays: Peptides were dissolved in 100 mM TRIS–HCl buffer (pH 8.0) containing 10 mM CaCl2 at 100 mM concentration. Chymotrypsin (Sigma-Aldrich, Budapest, Hungary) stock solution was 0.5 mg/mL in the same buffer. A total […] peptide solution was measured in a reaction vessel and […] protease stock was added. Samples of […] were taken after 2, 6, 25 and 60 min. The samples were diluted into […] 5% TFA aliquots. The samples were then injected into HPLC–MS using a Phenomenex C18-XB Peptide column (250 × 4.6 mm, […]).

[3] = molecular target: T1, Chymotrypsin (Bos taurus, UniProt P00766); assay: Protease assay with chymotrypsin; format: in vitro ADME; conditions: chymotrypsin (isolated protease) in buffer; 100 mM TRIS–HCl pH 8.0 with 10 mM CaCl2; peptide 100 mM (so in the source); 50 mL of 0.5 mg/mL chymotrypsin stock to 500 mL peptide solution (so in the source); samples at 2, 6, 25, 60 min; HPLC–MS; < 24 = peak not detected at 2 min, 3% detection limit
T1 construct: purchased Sigma-Aldrich
Protocol: as §1

[4] = molecular target: ganglioside GM1; assay: Isothermal titration calorimetry (ITC) with GM1:DPC 1:5 bicelles; format: binding; conditions: 35 °C, GM1:DPC 1:5 (GM1 300 µM in syringe) injected into 15 µM ligand in cell, pH 7.2 phosphate buffer, one- or two-site fit, experiments repeated twice; for Kd: read-out: Binding affinities (KD) to ganglioside GM1
Protocol: Isothermal Titration Calorimetry: ITC was performed using a MicroCal VP-ITC microcalorimeter at 35 °C. The monosialoganglioside GM1 was obtained from Biosynth-Carbosynth (Bratislava, Slovakia, product code: OG03918, C73H131N3O31·xNa, HPLC purity > 95%). The n-dodecylphosphocholine (DPC) was obtained from Avanti (Alabaster, Alabama, product code: 850336, C17H38NO4P, purity > 99%). In individual titrations, 15 µL of solution containing GM1:DPC 1:5 was injected into the ligand solution in the cell from a computer-controlled 300 µL microsyringe at time intervals of 300 s. The GM1:DPC micelle mixture was prepared in the same pH 7.2 phosphate buffer as the ligand in the cell. The concentration of the ligand in the cell was 15 µM. The concentration of GM1 in the syringe was 300 µM. In control experiments, GM1:DPC was titrated into the cell containing buffer without ligand. To rule out lipid clustering, control measurements were performed with pure GM1 in the syringe, which yielded a […], indicating the GM1:DPC interaction in the micelles (Figure S6). No aggregation of the micelles was observed after titration, which rules out any secondary inter-particle effects induced by ligand binding. We note that such an uncontrolled aggregation phenomenon would have been detrimental to the very sensitive ITC detection. Our finding is in agreement with the literature results that mixed micelles of GM1 and DPC are readily formed. The experiments were repeated twice. The experimental data were fitted to one-binding-site or two-independent-site models with adjustable parameters of ΔHb1, Kd1, n1, and ΔHb2, Kd2, n2, respectively. Background subtraction and spline baseline correction was applied prior to the application of a generalized reduced gradient nonlinear least-squares procedure. […] Errors were estimated by using jack-knife resampling.

A half-life [1] of under 0.4 min and a half-life [2] of under 0.4 min were found for `NCCCC[C@H](NC(=O)[C@H](Cc1ccc(O)cc1)NC(=O)[C@@H](N)Cc1c[nH]c2ccccc12)C(=O)N[C@@H](Cc1ccc(O)cc1)C(=O)N[C@H](CC(N)=O)Cc1c[nH]c2ccccc12` [WYKYWβ] in this work.

A half-life [1] of 6.83 min and a half-life [2] of under 0.4 min were found for `NCCCC[C@H](NC(=O)[C@H](Cc1ccc(O)cc1)NC(=O)[C@@H](N)Cc1c[nH]c2ccccc12)C(=O)N[C@H](CC(=O)N[C@@H](Cc1c[nH]c2ccccc12)C(N)=O)Cc1ccc(O)cc1` [WYKYβW] in this work.

A half-life [3] of 10.8 min was found for `NCCCC[C@@H](CC(=O)N[C@@H](Cc1ccc(O)cc1)C(=O)N[C@@H](Cc1c[nH]c2ccccc12)C(N)=O)NC(=O)[C@H](Cc1ccc(O)cc1)NC(=O)[C@@H](N)Cc1c[nH]c2ccccc12` [WYKβYW] in this work.

A half-life [1] of 15 min and a half-life [3] of 1.25 min were found for `NCCCC[C@H](NC(=O)C[C@H](Cc1ccc(O)cc1)NC(=O)[C@@H](N)Cc1c[nH]c2ccccc12)C(=O)N[C@@H](Cc1ccc(O)cc1)C(=O)N[C@@H](Cc1c[nH]c2ccccc12)C(N)=O` [WYβKYW] in this work.

A half-life [1] of 1.83 min and a half-life [2] of under 0.4 min were found for `NCCCC[C@H](NC(=O)[C@H](Cc1ccc(O)cc1)NC(=O)C[C@@H](N)Cc1c[nH]c2ccccc12)C(=O)N[C@@H](Cc1ccc(O)cc1)C(=O)N[C@@H](Cc1c[nH]c2ccccc12)C(N)=O` [WβYKYW] in this work.

For “AYKYW [Ala derivative of WYKYW, position 1]”, the “Binding affinities (KD) to ganglioside GM1” value [4] was “n.f. ^[a]”.

A Kd [4] of 5.75 µM was found for WAKYW-NH2 [WAKYW] in this work.

A Kd [4] of 10.5 µM was found for WYAYW-NH2 [WYAYW] in this work.

A Kd [4] of 1.69 µM was found for WYKAW-NH2 [WYKAW] in this work.

A Kd [4] of 1.06 µM was found for WYKYA-NH2 [WYKYA] in this work.
